For 23 compounds, IC50 results are on record in patent publication US11759462B2, “Spirocyclic compounds as tryptophan hydroxylase inhibitors” (priority 2013, dated 2023).

Read-outs that look alike come from different tables or passages of the source.

This experiment concerns the target T1, Recombinant human TPH1 (MBP tagged) (Homo sapiens, UniProt P17752).
T1 construct: cloning full length human TPH1 cDNA in to a bacterial pMAL-c5E expression vector; made in house; host or cells: E. coli BL21 (DE3)
T1 sequence (P17752 1-444): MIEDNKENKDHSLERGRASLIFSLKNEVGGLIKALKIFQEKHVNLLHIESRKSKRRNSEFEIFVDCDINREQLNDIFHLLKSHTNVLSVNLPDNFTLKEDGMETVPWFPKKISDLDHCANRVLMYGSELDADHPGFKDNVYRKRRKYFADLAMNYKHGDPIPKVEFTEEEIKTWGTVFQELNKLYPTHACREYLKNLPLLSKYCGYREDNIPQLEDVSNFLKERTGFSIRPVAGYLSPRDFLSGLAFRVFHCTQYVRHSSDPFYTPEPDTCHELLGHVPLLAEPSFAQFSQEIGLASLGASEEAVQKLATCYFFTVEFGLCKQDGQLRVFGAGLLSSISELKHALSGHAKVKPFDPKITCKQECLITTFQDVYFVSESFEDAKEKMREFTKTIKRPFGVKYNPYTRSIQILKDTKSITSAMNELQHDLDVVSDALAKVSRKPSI
In words: TPH1 in vitro inhibition assay (kinetic fluorescence). It counts as biochemical. In a few lines: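 Final mix: 15 nM MBP-TPH1, 30 μM Trp, 36 μM 6-methyltetrahydropterin, 25 μM ferrous ammonium sulfate, 50 mM MES pH 7.1, 1% DMSO, room temperature.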

Where [1] appears, read: read-out: TPH1 Range (TPH1 inhibition IC50).

Take `Cc1cccc(C)c1-c1ccc([C@@H](Oc2cc(N3CCC4(CC3)CN[C@H](C(=O)O)C4)nc(N)n2)C(F)(F)F)cc1` [Example 55cg, (S)-8-(2-amino-6-((R)-1-(2′,6′-dimethyl-[1,1′-biphenyl]-4-yl)-2,2,2-trifluoroethoxy)pyrimidin-4-yl)-2,8-diazaspiro[4.5]decane-3-carboxylic acid]: the IC50 under setting [1] was in the range of 300 to 3000 nM. As to `Cc1ccc(-c2ccc([C@@H](Oc3cc(N4CCC5(CC4)CN[C@H](C(=O)O)C5)nc(N)n3)C(F)(F)F)cc2)cc1C` [Example 55ch, (S)-8-(2-amino-6-((R)-1-(3′,4′-dimethyl-[1,1′-biphenyl]-4-yl)-2,2,2-trifluoroethoxy)pyrimidin-4-yl)-2,8-diazaspiro[4.5]decane-3-carboxylic acid], the IC50 under setting [1] lay in the range of 50 to 300 nM. The same measure, in the same setting: for `CC(C)(C)c1ccc(-c2ccc([C@@H](Oc3cc(N4CCC5(CC4)CN[C@H](C(=O)O)C5)nc(N)n3)C(F)(F)F)cc2)cc1` [Example 55ci, (S)-8-(2-amino-6-((R)-1-(4′-(tert-butyl)-[1,1′-biphenyl]-4-yl)-2,2,2-trifluoroethoxy)pyrimidin-4-yl)-2,8-diazaspiro[4.5]decane-3-carboxylic acid] the value was 300 to 3000 nM.

Turning to `CC(C)c1ccc(-c2ccc([C@@H](Oc3cc(N4CCC5(CC4)CN[C@H](C(=O)O)C5)nc(N)n3)C(F)(F)F)cc2)cc1` [Example 55cj, (S)-8-(2-amino-6-((R)-2,2,2-trifluoro-1-(4′-isopropyl-[1,1′-biphenyl]-4-yl)ethoxy)pyrimidin-4-yl)-2,8-diazaspiro[4.5]decane-3-carboxylic acid], the concentration for half-maximal inhibition (IC50) under setting [1] was in the range of 300 to 3000 nM. Turning to `CC(C)c1cccc(-c2ccc([C@@H](Oc3cc(N4CCC5(CC4)CN[C@H](C(=O)O)C5)nc(N)n3)C(F)(F)F)cc2)c1` [Example 55ck, (S)-8-(2-amino-6-((R)-2,2,2-trifluoro-1-(3′-isopropyl-[1,1′-biphenyl]-4-yl)ethoxy)pyrimidin-4-yl)-2,8-diazaspiro[4.5]decane-3-carboxylic acid], under setting [1], the IC50 fell in the range of 300 to 3000 nM. With `Nc1nc(O[C@H](c2ccc(-c3ccc(Cl)c(Cl)c3)cc2)C(F)(F)F)cc(N2CCC3(CC2)CN[C@H](C(=O)O)C3)n1` [Example 55cl, (S)-8-(2-amino-6-((R)-1-(3′,4′-dichloro-[1,1′-biphenyl]-4-yl)-2,2,2-trifluoroethoxy)pyrimidin-4-yl)-2,8-diazaspiro[4.5]decane-3-carboxylic acid], the IC50 under setting [1] is 50 to 300 nM.

Turning to `Nc1nc(O[C@H](c2ccc(-c3ccc(OC(F)(F)F)cc3)cc2)C(F)(F)F)cc(N2CCC3(CC2)CN[C@H](C(=O)O)C3)n1` [Example 55cm, (S)-8-(2-amino-6-((R)-2,2,2-trifluoro-1-(4′-(trifluoromethoxy)-[1,1′-biphenyl]-4-yl)ethoxy)pyrimidin-4-yl)-2,8-diazaspiro[4.5]decane-3-carboxylic acid], under setting [1], the IC50 was 300 to 3000 nM. As to `Cc1cccc(-c2ccc([C@@H](Oc3cc(N4CCC5(CC4)CN[C@H](C(=O)O)C5)nc(N)n3)C(F)(F)F)cc2)c1C` [Example 55cn, (S)-8-(2-amino-6-((R)-1-(2′,3′-dimethyl-[1,1′-biphenyl]-4-yl)-2,2,2-trifluoroethoxy)pyrimidin-4-yl)-2,8-diazaspiro[4.5]decane-3-carboxylic acid], the IC50 under setting [1] was in the range of 300 to 3000 nM. The same measure, in the same setting: for `Cc1cc(Cl)ccc1-c1ccc([C@@H](Oc2cc(N3CCC4(CC3)CN[C@H](C(=O)O)C4)nc(N)n2)C(F)(F)F)cc1` [Example 55cp, (S)-8-(2-amino-6-((R)-1-(4′-chloro-2′-methyl-[1,1′-biphenyl]-4-yl)-2,2,2-trifluoroethoxy)pyrimidin-4-yl)-2,8-diazaspiro[4.5]decane-3-carboxylic acid] the value was 300 to 3000 nM. Consider `Cc1cc(C)cc(-c2ccc([C@@H](Oc3cc(N4CCC5(CC4)CN[C@H](C(=O)O)C5)nc(N)n3)C(F)(F)F)cc2)c1` [Example 55cq, (S)-8-(2-amino-6-((R)-1-(3′,5′-dimethyl-[1,1′-biphenyl]-4-yl)-2,2,2-trifluoroethoxy)pyrimidin-4-yl)-2,8-diazaspiro[4.5]decane-3-carboxylic acid], for which the IC50 under setting [1] is 50 to 300 nM. For the compound `Nc1nc(O[C@H](c2ccc(-c3ccc(F)c(F)c3)cc2)C(F)(F)F)cc(N2CCC3(CC2)CN[C@H](C(=O)O)C3)n1` [Example 55cr, (S)-8-(2-amino-6-((R)-1-(3′,4′-difluoro-[1,1′-biphenyl]-4-yl)-2,2,2-trifluoroethoxy)pyrimidin-4-yl)-2,8-diazaspiro[4.5]decane-3-carboxylic acid], the IC50 under setting [1] fell in the range of 300 to 3000 nM. On to `Cc1ccc(C)c(-c2ccc([C@@H](Oc3cc(N4CCC5(CC4)CN[C@H](C(=O)O)C5)nc(N)n3)C(F)(F)F)cc2)c1` [Example 55cs, (S)-8-(2-amino-6-((R)-1-(2′,5′-dimethyl-[1,1′-biphenyl]-4-yl)-2,2,2-trifluoroethoxy)pyrimidin-4-yl)-2,8-diazaspiro[4.5]decane-3-carboxylic acid], for which the IC50 under setting [1] was 300 to 3000 nM. As to `CCCCc1ccc(-c2ccc([C@@H](Oc3cc(N4CCC5(CC4)CN[C@H](C(=O)O)C5)nc(N)n3)C(F)(F)F)cc2)cc1` [Example 55ct, (S)-8-(2-amino-6-((R)-1-(4′-butyl-[1,1′-biphenyl]-4-yl)-2,2,2-trifluoroethoxy)pyrimidin-4-yl)-2,8-diazaspiro[4.5]decane-3-carboxylic acid], the IC50 under setting [1] is 300 to 3000 nM. The same measure, in the same setting: for `Cc1ccc(-c2ccc([C@@H](Oc3cc(N4CCC5(CC4)CN[C@H](C(=O)O)C5)nc(N)n3)C(F)(F)F)cc2)cc1F` [Example 55cu, (S)-8-(2-amino-6-((R)-2,2,2-trifluoro-1-(3′-fluoro-4′-methyl-[1,1′-biphenyl]-4-yl)ethoxy)pyrimidin-4-yl)-2,8-diazaspiro[4.5]decane-3-carboxylic acid] the value was 300 to 3000 nM.

Regarding `CS(=O)(=O)c1ccc(-c2ccc([C@@H](Oc3cc(N4CCC5(CC4)CN[C@H](C(=O)O)C5)nc(N)n3)C(F)(F)F)cc2)cc1` [Example 55cv, (S)-8-(2-amino-6-((R)-2,2,2-trifluoro-1-(4′-(methylsulfonyl)-[1,1′-biphenyl]-4-yl)ethoxy)pyrimidin-4-yl)-2,8-diazaspiro[4.5]decane-3-carboxylic acid], the IC50 under setting [1] lay in the range of 300 to 3000 nM.

With `Cc1ccc(-c2ccc([C@@H](Oc3cc(N4CCC5(CC4)CN[C@H](C(=O)O)C5)nc(N)n3)C(F)(F)F)cc2)cc1` [Example 55cw, (S)-8-(2-amino-6-((R)-2,2,2-trifluoro-1-(4′-methyl-[1,1′-biphenyl]-4-yl)ethoxy)pyrimidin-4-yl)-2,8-diazaspiro[4.5]decane-3-carboxylic acid], the IC50 under setting [1] was in the range of 300 to 3000 nM. As to `Cc1cccc(-c2ccc([C@@H](Oc3cc(N4CCC5(CC4)CN[C@H](C(=O)O)C5)nc(N)n3)C(F)(F)F)cc2)c1` [Example 55cx, (S)-8-(2-amino-6-((R)-2,2,2-trifluoro-1-(3′-methyl-[1,1′-biphenyl]-4-yl)ethoxy)pyrimidin-4-yl)-2,8-diazaspiro[4.5]decane-3-carboxylic acid], the IC50 under setting [1] was in the range of 300 to 3000 nM. Same read-out and setting: for `Nc1nc(O[C@H](c2ccc(-c3ccc(Cl)cc3)cc2)C(F)(F)F)cc(N2CCC3(CC2)CN[C@H](C(=O)O)C3)n1` [Example 55cy, (S)-8-(2-amino-6-((R)-1-(4′-chloro-[1,1′-biphenyl]-4-yl)-2,2,2-trifluoroethoxy)pyrimidin-4-yl)-2,8-diazaspiro[4.5]decane-3-carboxylic acid] the value was 300 to 3000 nM; for `Nc1nc(O[C@H](c2ccc(-c3coc4ccccc34)cc2)C(F)(F)F)cc(N2CCC3(CC2)CN[C@H](C(=O)O)C3)n1` [Example 55cz, (S)-8-(2-amino-6-((R)-1-(4-(benzofuran-3-yl)phenyl)-2,2,2-trifluoroethoxy)pyrimidin-4-yl)-2,8-diazaspiro[4.5]decane-3-carboxylic acid], 50 to 300 nM; for `Nc1nc(O[C@H](c2ccc(-c3ccc4[nH]cnc4c3)cc2)C(F)(F)F)cc(N2CCC3(CC2)CN[C@H](C(=O)O)C3)n1` [Example 55d, (S)-8-(6-((R)-1-(4-(1H-benzo[d]imidazol-5-yl)phenyl)-2,2,2-trifluoroethoxy)-2-aminopyrimidin-4-yl)-2,8-diazaspiro[4.5]decane-3-carboxylic acid], below 50 nM. On to `COc1ccc(F)cc1-c1ccc([C@@H](Oc2cc(N3CCC4(CC3)CN[C@H](C(=O)O)C4)nc(N)n2)C(F)(F)F)cc1` [Example 55da, (S)-8-(2-amino-6-((R)-2,2,2-trifluoro-1-(5′-fluoro-2′-methoxy-[1,1′-biphenyl]-4-yl)ethoxy)pyrimidin-4-yl)-2,8-diazaspiro[4.5]decane-3-carboxylic acid], for which the IC50 under setting [1] lay in the range of 300 to 3000 nM. On to `Nc1nc(O[C@H](c2ccc(-c3ccc4c(c3)OC(=O)CC4)cc2)C(F)(F)F)cc(N2CCC3(CC2)CN[C@H](C(=O)O)C3)n1` [Example 55db, (S)-8-(2-amino-6-((R)-2,2,2-trifluoro-1-(4-(2-oxochroman-7-yl)phenyl)ethoxy)pyrimidin-4-yl)-2,8-diazaspiro[4.5]decane-3-carboxylic acid], for which the IC50 under setting [1] was in the range of 300 to 3000 nM. As to `Nc1nc(O[C@H](c2ccc(-c3ccc4ncc(F)cc4c3)cc2)C(F)(F)F)cc(N2CCC3(CC2)CN[C@H](C(=O)O)C3)n1` [Example 55dc, (S)-8-(2-amino-6-((R)-2,2,2-trifluoro-1-(4-(3-fluoroquinolin-6-yl)phenyl)ethoxy)pyrimidin-4-yl)-2,8-diazaspiro[4.5]decane-3-carboxylic acid], under “TPH1 Range (TPH1 inhibition IC50)”, the IC50 was below 50 nM.

In general, IC50 refers to the point on the concentration scale where inhibition reaches its midpoint.
